{
  "source": "patent US20210186999A1",
  "about": "“METHOD FOR TREATMENT OF CANCER” (National University of Ireland Galway, priority 2017, published 2021)",
  "key": {"[1]": {"tested_on": "nitric oxide (NO), prostaglandin E2 (PGE2), IL-10 in MLR supernatant", "assay": "ELISA and Griess assay of immunomodulatory molecules in supernatant of mixed lymphocyte reaction", "format": "cell-based, BALB/c", "conditions": "MSCs cultured with 100 μM inhibitor, FIGS. 4(a)-4(c)", "method": "Sialic acid content was assayed using lectin coupled flow cytometry. Biotin labelled SNA-I and MAL-II were used to detect a 2-6 sialic acid and a 2-3 sialic acid respectively. Sialyltransferase inhibition was carried out using 100 μM of 3Fax-Peracetyl Neu5Ac. Cells were cultured in the presence of the inhibitor for two successive passages to ensure inhibition.\nBoth ELISA and the Griess assay were used to determine quantity of immunomodulatory molecules in the supernatant of mixed lymphocyte reaction experiments."}, "[2]": {"tested_on": "TNF-α+IL-1β treated MSCs co-cultured with activated T-cells", "assay": "MSC : T-cell co-culture in mixed lymphocyte reactions (MLRs), flow cytometry", "format": "cell-based, BALB/c", "conditions": "MSCs cultured with 100 μM inhibitor for two successive passages; MLR co-culture 96 hrs; FIGS. 3(a)-3(c)", "method": "Materials and Methods Four female BALB/c at approximately 5 to 7 weeks were euthanized and the femur and tibia was dissected and placed in a 50 ml tube with media or PBS. Using a forceps and scissors the bones were cleaned to remove muscles and snipped on both ends to plunge out the marrow into a Petri dish containing MSC medium. A 30G needle fitted on a 1 ml syringe was used to plunge out the marrow and repeated several times till the bones appeared white. The marrow was passed through a 40 μm sieve attached to a 50 ml tube and the sieve was washed twice with medium. Medium was changed, and a cell count was performed. 10 μl cells was mixed with 40 μl PBS and 10 μl 4% acetic acid and cell count was performed. Based on the count approximately 35-50 million cells were seeded per T175 cm flask or 1 animal per flask. After isolation and culturing the MSCs were extensively characterized in vitro before and after treatment with TNF-α+IL-1β.\nSialic acid content was assayed using lectin coupled flow cytometry. Biotin labelled SNA-I and MAL-II were used to detect a 2-6 sialic acid and a 2-3 sialic acid respectively. Sialyltransferase inhibition was carried out using 100 μM of 3Fax-Peracetyl Neu5Ac. […]\nMSC and TNF-α+IL-1βMSC were co-cultured at different MSC: T-cell ratios for 96 hrs. T-cell proliferation, activation, death and differentiation were determined by flow cytometry."}},
  "data": [
    {"smiles": "COC(=O)C1(OC(C)=O)OC(C(OC(C)=O)C(COC(C)=O)OC(C)=O)C(NC(C)=O)C(OC(C)=O)C1F", "note": "(stereo not drawn) [3Fax-Peracetyl Neu5Ac]", "values": [
      {"measurement": "dependence of restored T-cell proliferation on NO, PGE2 and IL-10", "setting": "[1]", "value": "independent of nitric oxide (NO), prostaglandin E2 (PGE2), and IL-10"},
      {"measurement": "proliferation of T-cells (CD4+, CD8+) in co-culture with inhibitor-treated MSCs", "setting": "[2]", "value": "restored proliferation of T-cells"},
      {"measurement": "suppression of activated T-cells by TNF-α+IL-1β treated MSCs exposed to the sialyltransferase inhibitor", "setting": "[2]", "value": "not as effective at suppressing activated T-cells"}
    ]}
  ]
}
